# Laboratory results taken from patent US20230189864A1, “NON-THERAPEUTIC METHODS FOR MAINTAINING A HEALTHY BODY WEIGHT OR LOSING BODY WEIGHT” (FrieslandCampina Nederland B.V., priority 2019, published 2023).
# Assays:
# [1] = system: pooled fecal microbiota from healthy lean subjects; assay: TIM-2 in vitro fermentation model, SCFA analysis; format: cell-based, human
# Description: The in vitro fermentation studies were done using the TIM-2 model. This is a validated, dynamic, computer-controlled model that simulates the human colon, mimicking body temperature, lumen pH, absorption of water and microbial metabolites through a semipermeable membrane inside the model, mixing and transporting the intestinal contents with peristaltic movements, using an anaerobic microbiota from human origin, it corresponds basically to the model as described in Minekus, M., et al. Appl. Microbiol. Biotechnol. 1999 53, 108 --- 114. doi: 10.1007/ s002530051622 and Kortman et al., Frontiers in Microbiology 2016, 6, 1481.
# Characteristics of the movements of the contents in the TIM-2 system were simulated using an increase of the pH and peristaltic movements of the contents in the system using peristaltic pumps as described in Minekus, M (1998. Development and validation of a dynamic model of the gastrointestinal tract. PhD thesis, Delft University of Technology, The Netherlands).
# SCFA analysis was performed at Brightlabs B.V., Venlo, The Netherlands), according to (Sáyago-Ayerdi SG, et al. Food Research International, E-pub date 13 Dec. 2017; Sayago Ayerdi et al Food Research International 118 (2019) 89-95).
# Pooled fecal microbiota samples from 11 healthy lean subjects not suffering from any metabolic disease was used to inoculate the TIM-2 in vitro fermentation model.
# The fecal microbiota was freshly sampled in and stored directly (within 2 h) on ice and under anaerobic conditions. Next, in an anaerobic cabinet, samples were diluted 1:1 with dialysate, and pooled at approximately equal weight, after which glycerol was added (to a final concentration of 12-13 w/w) and aliquots (30 ml/tube) were frozen in liquid nitrogen and stored at -80 ℃. […]
# Samples (1 mL) were taken for SCFA analysis after 1, 2, 4, 6, 8 and 24 h after test product insertion; cumulative absolute amounts of SCFA were determined. […] The acids were detected using suppressed conductivity detection. […]
# [2] = addition to infant formula; cited from earlier work
# [3] = overweight men, cited from earlier work
# [4] = TIM-2, microbiota of lean subjects (18.5 kg/m^2 ≤ BMI < 25 kg/m^2), 8-24 h, represents distal colon, single shot 7.5 g 2′-FL (± 7.5 g RS)
# [5] = administered in the distal part of the colon
Compound,"SCFA levels and in particular acetate levels in the distal colon (in words) ([1]; TIM-2, lean subjects' microbiota)","Acetate produced between 8 and 24 hours after insertion of the test product [1, 4]","SCFA produced between 8 and 24 hours after insertion of the test product [1, 4]",safety and tolerance [2],"circulating plasma concentrations of peptide YY (PYY) [3, 5]","fat oxidation [3, 5]",energy expenditure or substrate oxidation ([3]; administered in the proximal colon)
2′-Fucosyllactose [2′-FL w/o RS],increased,12 mmol,21 mmol,safe and well-tolerated,,,
CC(=O)[O-].[Na+] [sodium acetate],,,,,significantly increased,significantly increased,no effect
